Experimental data published in patent US12480163B2, “Compositions and methods for identification assessment, prevention, and treatment of Ewing sarcoma using TP53 dependency biomarkers and modulators” (Dana-Farber Cancer Institute, Inc., priority 2018, dated 2025).
“Also recorded” adds a separate entry of the source.

What was measured:
[1] = system: TP53 wild-type Ewing sarcoma cell lines; assay: Annexin V staining, flow cytometry (cell death); format: cell-based; details: TC32 and CHLA258; 2 d ATSP-7041 (2 μM, 4 μM) or P5091 (6.5 μM, 8 μM), 3 d GSK2830371 (15 μM)
Method: Cell death was measured using flow cytometric analysis of Annexin V staining according to the manufacturer's instructions (eBioscience). Data analysis was completed using Flowjo 7.6 software (Treestar).

[2] = system: TP53 wild-type Ewing sarcoma cell lines; assay: CellTiter-Glo cell viability assay, TP53 wild-type Ewing sarcoma cell lines; format: cell-based; details: treated for 3 d
Method: (§1) Cell viability was assessed using the CellTiter-Glo® Luminescent Cell Viability Assay (Promega). Viability assays were performed after Ewing sarcoma cell lines were infected with sgRNAs targeting TP53, MDM2, MDM4, PPM1D, or USP7 or treated with ATSP-7041, ATSP-7342, GSK2830371, P5091, XL-188, or vehicle control.

[3] = biological target: T1, Wip1 (Homo sapiens, UniProt O15297); assay: Western immunoblotting of Wip1 and pSer15-p53; format: cell-based; details: Western blot
T1 construct: Whole-cell lysates were extracted in cell lysis buffer (Cell Signaling); endogenous in cells; host or cells: TP53 wild-type Ewing sarcoma cell lines
T1 sequence (O15297 1-605): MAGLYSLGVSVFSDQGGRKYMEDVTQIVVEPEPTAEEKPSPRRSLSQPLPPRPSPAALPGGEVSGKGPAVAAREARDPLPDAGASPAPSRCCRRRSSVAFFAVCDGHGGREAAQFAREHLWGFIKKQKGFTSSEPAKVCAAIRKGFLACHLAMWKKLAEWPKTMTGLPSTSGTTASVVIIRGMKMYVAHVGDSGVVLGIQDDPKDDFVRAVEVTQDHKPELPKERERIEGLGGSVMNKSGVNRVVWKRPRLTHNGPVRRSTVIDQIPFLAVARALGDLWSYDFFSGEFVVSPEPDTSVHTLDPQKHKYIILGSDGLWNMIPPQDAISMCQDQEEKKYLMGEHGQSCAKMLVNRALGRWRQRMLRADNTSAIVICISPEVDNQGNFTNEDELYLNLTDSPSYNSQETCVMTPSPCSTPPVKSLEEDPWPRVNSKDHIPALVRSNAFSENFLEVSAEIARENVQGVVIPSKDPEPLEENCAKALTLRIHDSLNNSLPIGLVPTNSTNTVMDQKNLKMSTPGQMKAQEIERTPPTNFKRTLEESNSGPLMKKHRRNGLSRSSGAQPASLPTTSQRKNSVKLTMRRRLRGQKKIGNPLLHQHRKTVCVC
Method: (§2) Whole-cell lysates were extracted in cell lysis buffer (Cell Signaling) supplemented with EDTA-free protease inhibitors and PhosSTOP™ phosphatase inhibitors (Roche). Western immunoblotting was performed using standard techniques. Primary antibodies used included anti-MDM2 (ab178938; Abcam), anti-MDM2 (86934; Cell Signaling), anti-MDM4 (A300-287A; Bethyl Laboratories), anti-p53 (2527S; Cell Signaling), anti-p21 (2946S; Cell Signaling), anti-Vinculin (18058; Abcam), anti-Wip1 (A300-664A; Bethyl Laboratories), anti-pSer15-p53 (9284; Cell Signaling), anti-USP7 (A300-033A; Bethyl Laboratories), and anti-Tubulin (cp06; CalBiochem).

[4] = system: TP53 knockout cells; assay: CellTiter-Glo cell viability assay, TP53 knockout cells; format: cell-based; details: TP53 knockout cells vs control cells, treated for 3 d
Method: Lentivirus was produced by transfecting HEK-293T cells with the pLentiV2 vector (Addgene plasmid 52961) and the packaging plasmids pCMV8.9 and pCMV-VSVG according to the FuGENER 6 (Roche) protocol. For lentiviral transduction, Ewing sarcoma cells were incubated with 2 ml of virus and 8 μg/ml of polybrene (Sigma-Aldrich). Cells were selected in puromycin (Sigma-Aldrich) 48 h after infection for single knockout experiments. For dual knockout experiments, PPM1D, USP7, and MDM4 sgRNA sequences were cloned into a LentiV2 vector with a blasticidin selection marker (Addgene plasmid 83480).
d. sgRNA Sequences sgRNAs were designed using the Broad Institute's sgRNA designer tool. The following sequences were used as control or to target the respective genes: control sgRNA, 5′-[…]-3′ (SEQ ID NO: 125); sgMDM2 2: 5′-[…]-3′ (SEQ ID NO: 126); sgMDM2 5: 5′-[…]-3′ (SEQ ID NO: 127); sgMDM4 4: 5′-[…]-3′ (SEQ ID NO: 128); sgMDM4 6: 5′-[…]-3′ (SEQ ID NO: 129); sgUSP7 1: 5′-[…]-3′ (SEQ ID NO: 130); sgUSP7 2: 5′-ACCATACCCAAATTATTC CG-3′ (SEQ ID NO: 131); sgPPMID 1: 5′-[…]-3′ (SEQ ID NO: 132); sgPPMID 2: 5′-[…]-3′ (SEQ ID NO: 133); sgTP53 1: 5′-[…]-3′ (SEQ ID NO: 134); sgTP53 2: 5′-[…]-3′ (SEQ ID NO: 135); sgTP53 4: 5′-[…]-3′ (SEQ ID NO: 136); and sgTP53 5: 5′-[…]-3′ (SEQ ID NO: 137). e. Protein Extraction and Immunoblotting
as §1

[5] = system: MDM2, p53, and p21 protein levels; assay: Western immunoblotting of MDM2, p53, p21 in TP53 wild-type Ewing sarcoma cell lines; format: cell-based; details: for MDM2 protein levels, combination of ATSP-7041 and P5091 compared with ATSP-7041 alone: TC32 and TC138 cells, 2 d
Method: as §2

[6] = biological target: T2, p53-MDM4 complex (Homo sapiens, UniProt O15151); assay: MDM4 immunoprecipitation from TC32 cell lysates, p53 and MDM4 Western blot; format: binding; details: TC32 lysates after RG7388 pre-treatment, 20 μM compound
T2 construct: endogenous in cells; host or cells: TC32 Ewing sarcoma cells (TP53 wild-type), lysed in NP-40 buffer
T2 sequence (O15151 1-490): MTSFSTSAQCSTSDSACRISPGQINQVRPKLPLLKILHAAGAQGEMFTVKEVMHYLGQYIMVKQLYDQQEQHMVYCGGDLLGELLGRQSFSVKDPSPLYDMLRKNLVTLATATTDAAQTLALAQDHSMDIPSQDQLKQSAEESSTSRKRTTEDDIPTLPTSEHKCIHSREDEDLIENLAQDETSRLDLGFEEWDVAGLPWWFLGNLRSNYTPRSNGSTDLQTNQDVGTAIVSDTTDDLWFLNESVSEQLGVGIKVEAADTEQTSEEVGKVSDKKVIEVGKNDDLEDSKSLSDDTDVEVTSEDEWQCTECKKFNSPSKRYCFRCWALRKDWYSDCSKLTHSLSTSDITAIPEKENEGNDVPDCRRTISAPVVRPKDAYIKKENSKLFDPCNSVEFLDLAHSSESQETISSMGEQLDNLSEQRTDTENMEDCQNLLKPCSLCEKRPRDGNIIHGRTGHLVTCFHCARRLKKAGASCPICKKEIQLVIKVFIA
Method: g. Immunoprecipitation Experiments
Five million TC32 cells were treated with either 10 μM RG7388 or vehicle control for 4 h. Cells were lysed in buffer A (150 mM NaCl, 50 mM Tris, and 0.5% NP-40, pH 7.4) and combined with anti-MDM4 antibody (A300-287A; Bethyl Laboratories) in the presence of 20 μM RG7388, ATSP-7041, or vehicle control in a total volume of 1 ml, rotating at 4° C. for 16 h. Subsequently, 50 μl washed Protein AG beads (sc-2003; Santa Cruz) were added and the mixture was incubated for 1 h rotating at 4° C. Beads were washed three times in buffer A, and protein complexes were eluted by boiling in NuPage® LDS Sample Buffer (NP0007; Invitrogen) supplemented with DTT. Samples were analyzed by Western blot with antibodies against p53 DO-1 (sc-126; Santa Cruz) and MDM4 (A300-287A; Bethyl Laboratories).

[7] = system: MDM2 protein levels; assay: Western immunoblotting of MDM2 in TP53 mutated cell lines A673 and EWS502; format: cell-based; details: TP53 mutated cell lines A673 and EWS502, 1 μM; 4 h
Method: as §2

[8] = TP53 wild-type Ewing sarcoma cell lines, micromolar concentrations

SMILES	cell death measured by Annexin V staining [1]	cell viability, normalized to vehicle control [2, 8]	phosphorylation of Serine 15 of p53 (pSer15-p53) ([3]; single agent)	Wip1 protein levels ([3]; time-dependent)	effect of TP53 knockout on the cytotoxic effect of the compound (viability) [4]	MDM2 protein levels, combination of ATSP-7041 and P5091 compared with ATSP-7041 alone [5]	MDM2 protein levels, combination of ATSP-7041 and P5091 compared with ATSP-7041 alone ([5]; listed as P0951)	p53 and p21 protein levels ([5]; TP53 wild-type cells TC32 and TC138, Western blot)	MDM2 protein levels ([5]; TP53 wild-type cell lines TC32 and TC138, 1 μM, 4 h)	disruption of p53-MDM4 complex (MDM4 immunoprecipitation) [6]	MDM2 protein levels [7]	cell viability, normalized to vehicle control ([2]; TC32 cells)
Cc1ncc(Cl)cc1NCc1ccc(C(=O)N[C@@H](CC2CCCC2)C(=O)NC2CC2)s1 [GSK2830371, 5-[[(5-Chloro-2-methyl-3-pyridinyl)amino]methyl]-N-[(1S)-1-(cyclopentylmethyl)-2-(cycloprpylamino)-2-oxoethyl]-2-thiophenecarboxamide]	triggers cell death; also recorded: GSK2830371-induced cell death	reduce viability; also recorded: notable increase in susceptibility	increased pSer15-p53; also recorded: triggered a surge in phosphorylation of Serine 15 of p53	decreased protein levels of Wip1; also recorded: reduced the protein levels of Wip1	less effective							
CC(=O)c1cc([N+](=O)[O-])c(Sc2cccc(Cl)c2Cl)s1 [P5091]	triggers cell death; also recorded: P5091-induced cell death	reduce viability; also recorded: relatively more cytotoxic			did not rescue	decreased MDM2 protein levels; also recorded: decreased the level of MDM2 protein	suppresses the feedback up-regulation of MDM2	increase in p53 and p21 protein levels; also recorded: increased p53 and p21 protein levels in a time-dependent fashion				
COc1cc(C(=O)O)ccc1NC(=O)[C@@H]1N[C@@H](CC(C)(C)C)[C@](C#N)(c2ccc(Cl)cc2F)[C@H]1c1cccc(Cl)c1F [RG7388]									increase in MDM2 protein levels	does not interrupt binding; also recorded: unable to dissociate	no response; also recorded: no increase in MDM2 protein	
C[C@H](CC(=O)N1CCC(O)(Cn2cnc3cc(NC(=O)CCN4CCN(C)CC4)ccc3c2=O)CC1)c1ccccc1 [XL-188, (R)—N-(3-((4-hydroxy-1-(3-phenylbutanoyl)piperidin-4-yl)methyl)-4-oxo-3,4-dihydroquinazolin-7-yl)-3-(4-methylpiperazin-1-yl) propanamide]		reduced viability predominantly in TP53 wild-type Ewing sarcoma cell lines			completely reversed the cytotoxic effect							especially robust effect
